Laboratory results reported in ChEMBL document CHEMBL5550185, “Targeting hTERT Promoter G-Quadruplex DNA Structures with Small-Molecule Ligand to Downregulate hTERT Expression for Triple-Negative Breast Cancer Therapy” (J Med Chem, 2024).
The source made the active and inactive calls. No cut-off for these calls is given here.

Columns and labels:
DNA [1] = experiment: Binding affinity to Ds26 duplex DNA (unknown origin) assessed as thermal stability by measuring change in melting temperature at 400 uM […]; assay type: nucleic-acid assay
DNA [2] = experiment: Binding affinity to Ds26 duplex DNA (unknown origin) assessed as change in gibbs free energy at 400 uM by ITC analysis; assay type: nucleic-acid assay
Quadruplex DNA [3] = experiment: Binding affinity to CKIT-2 G4 DNA (unknown origin) assessed as dissociation constant by ITC analysis; assay type: nucleic-acid assay
A549 = experiment: Cytotoxicity against telomerase-positive human A549 cells assessed as inhibition of cell growth incubated for 48 hrs by MTT assay; assay type: functional, cell-based; details: A549, 48 h
Quadruplex DNA [4] = experiment: Binding affinity to Telo21 G4 DNA (unknown origin) assessed as thermal stability by measuring change in melting temperature at 400 uM […]; assay type: nucleic-acid assay
Quadruplex DNA [5] = experiment: Binding affinity to hTERT G4 DNA assessed as change in enthalpy at 400 uM by ITC analysis; assay type: nucleic-acid assay; details: Homo sapiens
[6] = Selectivity ratio of binding affinity to human TERT G4 DNA to binding affinity to Telo21 G4 DNA (unknown origin)
Homo sapiens = species on record: Homo sapiens; experiment: Selectivity ratio of binding affinity to human TERT G4 DNA to binding affinity to antisense i-hTERT DNA
[7] = Selectivity ratio of binding affinity to human TERT G4 DNA to binding affinity to Dt21 ssDNA (unknown origin)
U2OS = experiment: Cytotoxicity against alternative lengthening of telomere-positive human U2OS cells assessed as inhibition of cell growth incubated for 48 hrs by MTT assay; assay type: functional, cell-based
MDA-MB-231 [8] = experiment: Downregulation of CTCF mRNA expression in human MDA-MB-231 cells at 0 to 1.5 uM measured after 48 hrs by qRT-PCR analysis; assay type: functional, cell-based; details: dose 0-1.5 µM
MDA-MB-231 [9] = experiment: Downregulation of c-MYC mRNA expression in human MDA-MB-231 cells at 0 to 1.5 uM measured after 48 hrs by qRT-PCR analysis; assay type: functional, cell-based; details: dose 0-1.5 µM
MDA-MB-231 [10] = experiment: Induction of DNA damage in human MDA-MB-231 cells assessed as upregulation of gamma-H2AX protein expression measured after 48 hrs by Western blot analysis; assay type: functional, cell-based; details: dose 0-1.5 µM
MDA-MB-231 [11] = experiment: Activation of apoptosis in human MDA-MB-231 cells assessed as upregulation of BAX protein expression measured after 48 hrs by Western blot analysis; assay type: functional, cell-based; details: dose 0-1.5 µM
MDA-MB-231 [12] = experiment: Cytotoxicity against human MDA-MB-231 cells assessed as inhibition of cell growth incubated for 48 hrs in presence of TBHP by MTT assay; assay type: functional, cell-based; details: MDA-MB-231, 48 h
MDA-MB-231 [13] = experiment: Induction of mitochondrial dysfunction in human MDA-MB-231 cells assessed as downregulation of mitochondrial respiratory complex I-NDUFB8 expression incubated for 48 hrs by Western blot analysis; assay type: functional, cell-based; details: dose 0-1.5 µM
MDA-MB-231 [14] = experiment: Induction of mitochondrial dysfunction in human MDA-MB-231 cells assessed as downregulation of mitochondrial respiratory complex II-SDHB expression incubated for 48 hrs by Western blot analysis; assay type: functional, cell-based; details: dose 0-1.5 µM
MDA-MB-231 [15] = experiment: Induction of mitochondrial dysfunction in human MDA-MB-231 cells assessed as increase in mitochondrial ROS production at 0 to 1.5 uM incubated for 48 hrs by Hoechst33342 staining based microscopic analysis; assay type: functional, cell-based; details: dose 0-1.5 µM
MDA-MB-231 [16] = experiment: Downregulation of p62 protein expression in human MDA-MB-231 cells at 0 to 1.5 uM measured after 48 hrs by Western blot analysis; assay type: functional, cell-based; details: dose 0-1.5 µM
MDA-MB-231 [17] = experiment: Downregulation of LC3-I protein expression in human MDA-MB-231 cells at 0 to 1.5 uM measured after 48 hrs by Western blot analysis; assay type: functional, cell-based; details: dose 0-1.5 µM
MDA-MB-231 [18] = experiment: Downregulation of ND3 gene expression in human MDA-MB-231 cells at 1 uM measured after 48 hrs by RNA-seq analysis; assay type: functional, cell-based
MDA-MB-231 [19] = experiment: Downregulation of ND4 gene expression in human MDA-MB-231 cells at 1 uM measured after 48 hrs by RNA-seq analysis; assay type: functional, cell-based
[20] = Upregulation of SKP2 gene expression in human MDA-MB-231 cells assessed as fold change at 1 uM measured after 48 hrs by RNA-seq analysis relative to control; assay type: functional
MDA-MB-231 [21] = experiment: Inhibition of hTERT expression at transcriptional level in human MDA-MB-231 cells at 1 uM measured after 48 hrs by RNA-seq analysis; assay type: functional, cell-based
[22] = Upregulation of ZFP36L1 gene expression in human MDA-MB-231 cells assessed as fold change at 1 uM measured after 48 hrs by RNA-seq analysis relative to control; assay type: functional
[23] = Upregulation of HLA-F gene expression in human MDA-MB-231 cells assessed as fold change at 1 uM measured after 48 hrs by RNA-seq analysis relative to control; assay type: functional
[24] = Upregulation of CALML6 gene expression in human MDA-MB-231 cells assessed as fold change at 1 uM measured after 48 hrs by RNA-seq analysis relative to control; assay type: functional
[25] = Upregulation of SAT1 gene expression in human MDA-MB-231 cells assessed as fold change at 1 uM measured after 48 hrs by RNA-seq analysis relative to control; assay type: functional
[26] = Toxicity in female Balb/c nude mouse xenografted with human MDA-MB-231 cells assessed as signs of skin tear at 2 to 5 mg/kg, iv administered via tail vein every 2 days for 16 days; assay type: organism-based; details: in vivo, 384 h, dose 2-5 mg/kg, time 16 day
[27] = Toxicity in female Balb/c nude mouse xenografted with human MDA-MB-231 cells assessed as signs of poor health at 2 to 5 mg/kg, iv administered via tail vein every 2 days for 16 days; assay type: organism-based; details: in vivo, 384 h, dose 2-5 mg/kg, time 16 day
MDA-MB-231 [28] = experiment: Antitumor activity against human MDA-MB-231 cells xenografted in female Balb/c mouse assessed as reduction in tumor volume at 5 mg/kg, iv administered via tail vein every 2 days for 16 days relative to control; assay type: functional; design: scale not given: the % may be the effect or the level left; details: time 16 day
MDA-MB-231 [29] = experiment: Antitumor activity against human MDA-MB-231 cells xenografted in iv dosed female Balb/c mouse assessed as nucleolysis in tumor administered via tail vein every 2 days for 16 days by H and E staining based analysis; assay type: functional, organism-based; details: dose 2-5 mg/kg, time 16.0 day
[30] = Toxicity in female Balb/c nude mouse xenografted with human MDA-MB-231 cells assessed as change in blood urea nitrogen level at 2 to 5 mg/kg, iv administered via tail vein every 2 days for 16 days; assay type: organism-based; details: in vivo, 384 h, dose 2-5 mg/kg, time 16 day
[31] = Toxicity in female Balb/c nude mouse xenografted with human MDA-MB-231 cells assessed as change in creatinine level at 2 to 5 mg/kg, iv administered via tail vein every 2 days for 16 days; assay type: organism-based; details: in vivo, 384 h, dose 2-5 mg/kg, time 16 day
[32] = Toxicity in female Balb/c nude mouse xenografted with human MDA-MB-231 cells assessed as change in uric acid level at 2 to 5 mg/kg, iv administered via tail vein every 2 days for 16 days; assay type: organism-based; details: in vivo, 384 h, dose 2-5 mg/kg, time 16 day
[33] = Toxicity in female Balb/c nude mouse xenografted with human MDA-MB-231 cells assessed as pathological changes in heart at 2 to 5 mg/kg, iv administered via tail vein every 2 days for 16 days by H and E staining based analysis; assay type: organism-based; details: in vivo, 384 h, dose 2-5 mg/kg, time 16 day
[34] = Toxicity in female Balb/c nude mouse xenografted with human MDA-MB-231 cells assessed as pathological changes in spleen at 2 to 5 mg/kg, iv administered via tail vein every 2 days for 16 days by H and E staining based analysis; assay type: organism-based; details: in vivo, 384 h, dose 2-5 mg/kg, time 16 day

C[n+]1c(/C=C/c2c[nH]c3ccccc23)cc(/C=C2\Sc3ccccc3N2CCCN2CCC(C(F)(F)F)CC2)c2ccccc21.[I-]
ΔTm (DNA [1]): 1.01 °C
deltaG (DNA [2]): -6.45 kcal/mol
Kd (Quadruplex DNA [3]): 6800 nM
IC50 (A549): 2100 nM
ΔTm (Quadruplex DNA [4]): 8.85 °C
deltaH (Quadruplex DNA [5]): -2.72 kcal/mol
Selectivity ratio [6]: 2
Selectivity ratio (Homo sapiens): 3
Selectivity ratio [7]: 18
IC50 (U2OS): 3900 nM
Activity (MDA-MB-231 [8]): inactive
Activity (MDA-MB-231 [9]): inactive
Activity (MDA-MB-231 [10]): Dose-Dependent Effect
Activity (MDA-MB-231 [11]): Dose-Dependent Effect
IC50 (MDA-MB-231 [12]): 670 nM
Activity (MDA-MB-231 [13]): Dose-Dependent Effect
Activity (MDA-MB-231 [14]): Dose-Dependent Effect
Activity (MDA-MB-231 [15]): Active
Activity (MDA-MB-231 [16]): Active
Activity (MDA-MB-231 [17]): Active
Activity (MDA-MB-231 [18]): Active
Activity (MDA-MB-231 [19]): Active
fold change (FC) [20]: >2
inhibition (MDA-MB-231 [21]): Active
fold change (FC) [22]: >2
fold change (FC) [23]: >2
fold change (FC) [24]: >2
fold change (FC) [25]: >2
Activity [26]: Non-Toxic
Activity [27]: Non-Toxic
Activity (MDA-MB-231 [28]): 78.5%
Activity (MDA-MB-231 [29]): Dose-Dependent Effect
Activity [30]: Non-Toxic
Activity [31]: Non-Toxic
Activity [32]: Non-Toxic
Activity [33]: Non-Toxic
Activity [34]: Non-Toxic
